Experimental data published in ChEMBL document CHEMBL6178017, “Intercepting the Downstream of the Estrogen Receptor Signaling Pathway: Discovery of a Potent and Efficient SRC-3 PROTAC Degrader for Overcoming Endocrine Resistance Breast Cancer” (J Med Chem, 2025).
The source made the active and inactive calls. No cut-off for these calls is given here.

Tests used:
[1] = Induction of apoptosis in tamoxifen-resistant human LCC2 cells assessed as early apoptotic cells at 5 uM incubated for 48 hrs by AnnexinV-FITC/PI staining based flow cytometry (reference value: 5.92%); assay type: functional, Tamoxifen-resistant LCC2 cell
[2] = Toxicity against Balb/c mouse xenografted with tamoxifen-resistant human LCC2 cells assessed as effect on liver pathological changes at 3 to 5 uM/Kg, ip administered once every 2 days for 23 days and measured on day 25 by Hematoxylin-Eosin based […] staining analysis; assay type: organism-based; details: in vivo, 600 h, dose 3-5 µM/Kg, time 25 day
[3] = Clearance in Balb/c mouse at 2 mg/kg, iv by LC-MS/MS analysis; assay type: ADME, organism-based; details: in vivo
[4] = molecular target: T1, Protein cereblon/Nuclear receptor coactivator 3 (Homo sapiens, UniProt Q9Y6Q9+Q96SW2); test: PROTAC activity at CRBN/SRC-3 in human MCF7 cells assessed as induction of SRC-3 degradation at 1 uM preincubated with proteasome inhibitor, MG-132 for 2 hrs followed by incubation with compound and measured after 36 hrs by immunoblot analysis; assay type: cell-based
[5] = molecular target: T1, Protein cereblon/Nuclear receptor coactivator 3; test: PROTAC activity at CRBN/SRC-3 in tamoxifen-resistant human LCC2 cells assessed as induction of SRC-3 degradation at 0.1 to 10 uM incubated for 24 hrs by immunoblot analysis; assay type: cell-based; details: Tamoxifen-resistant LCC2 cell, dose 0.1-10 µM
[6] = Induction of apoptosis in tamoxifen-resistant human LCC2 cells assessed as necrotic cells at 10 uM incubated for 48 hrs by AnnexinV-FITC/PI staining based flow cytometry (reference value: 1.16%); assay type: functional, Tamoxifen-resistant LCC2 cell
[7] = Induction of apoptosis in tamoxifen-resistant human LCC2 cells assessed as necrotic cells at 20 uM incubated for 48 hrs by AnnexinV-FITC/PI staining based flow cytometry (reference value: 1.16%); assay type: functional, Tamoxifen-resistant LCC2 cell
[8] = molecular target: T1, Protein cereblon/Nuclear receptor coactivator 3; test: PROTAC activity at CRBN/SRC-3 in tamoxifen-resistant human LCC2 cells assessed as induction of SRC-3 degradation at 1 uM preincubated with proteasome inhibitor, MG-132 for 2 hrs followed by incubation with compound and measured after 36 hrs by immunoblot analysis; assay type: cell-based; details: Tamoxifen-resistant LCC2 cell
[9] = molecular target: T1, Protein cereblon/Nuclear receptor coactivator 3; test: PROTAC activity at CRBN/SRC-3 in tamoxifen-resistant human LCC2 cells assessed as degradation of CDK4 by measuring downregulation of CDK4 protein level at 10 uM measured after 36 hrs by diaPASEF-based quantitative proteomics analysis; details: Tamoxifen-resistant LCC2 cell
MCF7 [10] = test: Induction of apoptosis in human MCF7 cells assessed as maximal increase in early apoptotic cells at 10 uM incubated for 48 hrs by AnnexinV-FITC/PI staining based flow cytometry; assay type: functional
[11] = molecular target: T1, Protein cereblon/Nuclear receptor coactivator 3; test: PROTAC activity at CRBN/SRC-3 in human MCF7 cells assessed as induction of SRC-3 degradation at 1 uM incubated for 24 hrs by immunoblot analysis relative to control; assay type: cell-based
[12] = molecular target: Nuclear receptor coactivator 3 (Homo sapiens) (UniProt Q9Y6Q9); test: Binding affinity to SRC-3 in human MCF7 cells assessed as increase in thermal stability of the protein at 1 uM incubated for 6 hrs followed by exposure to higher temperatures for 5 mins by CETSA analysis; assay type: cell-based; details: time 365.0 min
[13] = Induction of cell cycle arrest in tamoxifen-resistant human LCC2 cells assessed as accumulation of cells at G1 phase at 20 uM incubated for 48 hrs by propidium iodide staining based flow cytometry (reference value: 78.71%); assay type: functional
[14] = Induction of apoptosis in tamoxifen-resistant human LCC2 cells assessed as necrotic cells at 5 uM incubated for 48 hrs by AnnexinV-FITC/PI staining based flow cytometry (reference value: 1.16%); assay type: functional, Tamoxifen-resistant LCC2 cell
[15] = Induction of apoptosis in tamoxifen-resistant human LCC2 cells assessed as late apoptotic cells at 20 uM incubated for 48 hrs by AnnexinV-FITC/PI staining based flow cytometry (reference value: 4.83%); assay type: functional, Tamoxifen-resistant LCC2 cell
MCF7 [16] = test: Antiproliferative activity against human MCF7 cells overexpressing EGFR assessed as inhibition of cell growth by CCK-8 assay; assay type: functional, cell-based
[17] = molecular target: T1, Protein cereblon/Nuclear receptor coactivator 3; test: PROTAC activity at CRBN/SRC-3 in tamoxifen-resistant human LCC2 cells assessed as induction of SRC-3 degradation at 1 uM incubated for 9 hrs by immunoblot analysis; assay type: cell-based; details: Tamoxifen-resistant LCC2 cell
[18] = Induction of apoptosis in tamoxifen-resistant human LCC2 cells assessed as viable cells at 5 uM incubated for 48 hrs by AnnexinV-FITC/PI staining based flow cytometry (reference value: 88.09%); assay type: functional; details: Tamoxifen-resistant LCC2 cell, read-out: Activity
[19] = Induction of apoptosis in tamoxifen-resistant human LCC2 cells assessed as viable cells at 1 uM incubated for 48 hrs by AnnexinV-FITC/PI staining based flow cytometry (reference value: 88.09%); assay type: functional; details: Tamoxifen-resistant LCC2 cell, read-out: Activity
[20] = Induction of apoptosis in tamoxifen-resistant human LCC2 cells assessed as late apoptotic cells at 1 uM incubated for 48 hrs by AnnexinV-FITC/PI staining based flow cytometry (reference value: 4.83%); assay type: functional, Tamoxifen-resistant LCC2 cell
[21] = molecular target: T1, Protein cereblon/Nuclear receptor coactivator 3; test: PROTAC activity at CRBN/SRC-3 in tamoxifen-resistant human LCC2 cells assessed as induction of ER-alpha degradation at 5 uM incubated for 24 hrs by immunoblot analysis; assay type: cell-based; details: Tamoxifen-resistant LCC2 cell
[22] = molecular target: T1, Protein cereblon/Nuclear receptor coactivator 3; test: PROTAC activity at CRBN/SRC-3 in tamoxifen-resistant human LCC2 cells assessed as maximal induction of SRC-3 degradation at 1 uM incubated for 36 hrs by immunoblot analysis; assay type: cell-based; details: Tamoxifen-resistant LCC2 cell
MCF7 [23] = test: Antiproliferative activity against human MCF7 cells harboring ER-alpha D538G mutant assessed as inhibition of cell growth by CCK8 assay; assay type: functional, cell-based
[24] = Half life in Balb/c mouse at 4 mg/kg, ip by LC-MS/MS analysis; assay type: ADME, organism-based; details: in vivo
[25] = molecular target: T1, Protein cereblon/Nuclear receptor coactivator 3; test: PROTAC activity at CRBN/SRC-3 in human MCF7 cells assessed as induction of SRC-3 degradation incubated for 24 hrs by immunoblot analysis; assay type: cell-based; details: dose 0.1-10 µM
[26] = tested on: Tamoxifen-resistant LCC2 cell; test: Antitumor activity against tamoxifen-resistant human LCC2 cells xenografted in Balb/c mouse assessed as inhibition of tumor growth at 3 uM/Kg, ip administered once every 2 days for 23 days; assay type: functional, organism-based; details: time 23.0 day
[27] = molecular target: T1, Protein cereblon/Nuclear receptor coactivator 3; test: PROTAC activity at CRBN/SRC-3 in human MCF7 cells assessed as induction of ER-alpha degradation at 1 uM incubated for 24 hrs by immunoblot analysis relative to control; assay type: cell-based
[28] = molecular target: Cereblon/Casein kinase I alpha (Homo sapiens) (UniProt P48729+Q96SW2); test: PROTAC activity at CRBN/CK-1 alpha in tamoxifen-resistant human LCC2 cells assessed as degradation of CK-1alpha at 10 uM measured after 36 hrs by diaPASEF-based quantitative proteomics analysis; details: Tamoxifen-resistant LCC2 cell
[29] = Metabolic stability of the compound in human plasma measured after 2 hrs by LC-MS/MS analysis; assay type: ADME, cell-free; details: read-out: Stability
[30] = molecular target: T1, Protein cereblon/Nuclear receptor coactivator 3; test: PROTAC activity at CRBN/SRC-3 in human MCF-7 cells harboring Y537S mutant assessed as induction of SRC-3 degradation measured after 36 hrs by immunoblot analysis; assay type: cell-based; details: MCF7, dose 0.01-10 µM
[31] = Intrinsic clearance in human liver microsomes in presence of NADPH by LC-MS/MS analysis; assay type: ADME, Microsome; details: read-out: CLH
[32] = molecular target: T1, Protein cereblon/Nuclear receptor coactivator 3; test: PROTAC activity at CRBN/SRC-3 in human MCF7 cells assessed as induction of AR degradation at 0.01 to 5 uM incubated for 24 hrs by immunoblot analysis; assay type: cell-based; details: dose 0.01-5 µM

T1 sequence (Q96SW2 whole entry partner): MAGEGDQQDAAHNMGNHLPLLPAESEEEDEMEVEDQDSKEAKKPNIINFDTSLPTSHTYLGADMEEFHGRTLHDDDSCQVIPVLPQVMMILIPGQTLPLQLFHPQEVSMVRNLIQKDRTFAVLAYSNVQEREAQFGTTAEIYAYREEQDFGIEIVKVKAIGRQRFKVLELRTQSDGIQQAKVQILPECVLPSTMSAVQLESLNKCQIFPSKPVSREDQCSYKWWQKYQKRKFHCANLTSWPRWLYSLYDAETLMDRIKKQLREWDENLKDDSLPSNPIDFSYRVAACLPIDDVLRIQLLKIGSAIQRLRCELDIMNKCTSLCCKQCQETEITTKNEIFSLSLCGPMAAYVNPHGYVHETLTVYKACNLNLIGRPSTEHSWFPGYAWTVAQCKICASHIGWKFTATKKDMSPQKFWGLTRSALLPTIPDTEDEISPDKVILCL
T1 sequence (Q9Y6Q9 2-1424 limits assumed): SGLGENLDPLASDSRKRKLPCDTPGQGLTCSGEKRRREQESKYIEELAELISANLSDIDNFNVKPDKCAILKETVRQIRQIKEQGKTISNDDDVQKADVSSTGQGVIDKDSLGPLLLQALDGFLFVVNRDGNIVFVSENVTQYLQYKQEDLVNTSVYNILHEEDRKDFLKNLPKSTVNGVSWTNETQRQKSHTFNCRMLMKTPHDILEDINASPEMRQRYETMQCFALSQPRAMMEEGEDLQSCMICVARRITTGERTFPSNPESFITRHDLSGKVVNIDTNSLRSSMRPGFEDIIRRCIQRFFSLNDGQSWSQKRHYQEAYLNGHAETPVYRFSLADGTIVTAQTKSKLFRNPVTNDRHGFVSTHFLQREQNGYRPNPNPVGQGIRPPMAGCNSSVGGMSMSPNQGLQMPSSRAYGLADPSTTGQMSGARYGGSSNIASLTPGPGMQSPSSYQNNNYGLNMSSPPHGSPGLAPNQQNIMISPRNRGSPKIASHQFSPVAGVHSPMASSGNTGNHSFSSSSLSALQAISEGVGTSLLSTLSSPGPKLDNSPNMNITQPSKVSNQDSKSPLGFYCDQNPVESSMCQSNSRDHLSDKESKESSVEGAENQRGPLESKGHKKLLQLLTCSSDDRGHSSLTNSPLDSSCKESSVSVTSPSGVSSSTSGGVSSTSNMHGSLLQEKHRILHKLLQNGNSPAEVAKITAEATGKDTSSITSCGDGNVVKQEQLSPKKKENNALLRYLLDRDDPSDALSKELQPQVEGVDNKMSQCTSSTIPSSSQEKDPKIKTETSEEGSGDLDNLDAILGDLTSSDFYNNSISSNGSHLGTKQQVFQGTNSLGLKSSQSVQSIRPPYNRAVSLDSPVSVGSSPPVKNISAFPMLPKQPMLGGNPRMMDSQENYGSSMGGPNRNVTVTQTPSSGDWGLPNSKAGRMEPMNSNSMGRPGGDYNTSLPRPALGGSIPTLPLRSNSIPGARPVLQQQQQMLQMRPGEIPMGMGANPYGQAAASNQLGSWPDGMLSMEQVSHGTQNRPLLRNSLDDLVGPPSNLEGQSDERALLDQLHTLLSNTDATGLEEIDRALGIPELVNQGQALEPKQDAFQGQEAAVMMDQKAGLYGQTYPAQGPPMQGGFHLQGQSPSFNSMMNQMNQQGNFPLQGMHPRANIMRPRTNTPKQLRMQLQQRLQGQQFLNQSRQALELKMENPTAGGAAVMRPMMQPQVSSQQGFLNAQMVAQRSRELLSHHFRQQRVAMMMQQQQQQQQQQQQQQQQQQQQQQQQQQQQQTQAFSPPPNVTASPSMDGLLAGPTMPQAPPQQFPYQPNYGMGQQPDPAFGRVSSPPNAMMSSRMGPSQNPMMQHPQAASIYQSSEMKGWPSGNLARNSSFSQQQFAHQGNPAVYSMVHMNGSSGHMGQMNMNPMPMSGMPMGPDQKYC
Chain of Cereblon/Casein kinase I alpha (Homo sapiens) (P48729 2-337 limits assumed): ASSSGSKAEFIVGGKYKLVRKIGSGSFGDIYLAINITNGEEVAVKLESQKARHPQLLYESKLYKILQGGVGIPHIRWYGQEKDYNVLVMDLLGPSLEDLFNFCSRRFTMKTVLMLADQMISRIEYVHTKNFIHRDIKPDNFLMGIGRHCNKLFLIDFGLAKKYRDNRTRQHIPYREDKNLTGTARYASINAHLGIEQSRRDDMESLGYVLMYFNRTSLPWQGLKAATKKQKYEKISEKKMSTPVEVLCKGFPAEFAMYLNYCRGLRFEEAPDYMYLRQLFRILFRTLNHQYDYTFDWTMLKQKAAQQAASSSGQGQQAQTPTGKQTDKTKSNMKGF
Chain of Cereblon/Casein kinase I alpha (Homo sapiens) (Q96SW2 whole entry partner): as the sequence (Q96SW2 whole entry partner) above
Chain of Nuclear receptor coactivator 3 (Homo sapiens) (Q9Y6Q9 2-1424 limits assumed): as the sequence (Q9Y6Q9 2-1424 limits assumed) above

C/C(=N\Nc1nc2ccccc2n1C1CN(C2CCN(c3cccc4c3C(=O)N(C3CCC(=O)NC3=O)C4=O)CC2)C1)c1ccccn1 (configuration not stated)
Activity [1]: 10.14%
Activity [2]: Non-toxic
clearance [3]: 96.8 mL/min/kg
Activity [4]: inactive
Activity [5]: Active
Activity [6]: 6.62%
Activity [7]: 10.9%
Activity [8]: inactive
Activity [9]: Active
Activity (MCF7 [10]): ~35%
Activity [11]: 71%
Activity [12]: Active
Activity [13]: 85.05%
Activity [14]: 10.46%
Activity [15]: 14.47%
IC50 (MCF7 [16]): 70 nM
Activity [17]: Active
viability at 5 µM [18]: 54.6%
viability at 1 µM [19]: 51.4%
Activity [20]: 21.9%
Activity [21]: Active; Higher Efficacy Compared To Fulvestrant At The Same Concentration Observed
Activity [22]: Active
IC50 (MCF7 [23]): 150 nM
half-life [24]: 3.46 h
Activity [25]: Dose-dependent-effect
Activity [26]: Active
Activity [27]: 85%
Activity [28]: inactive
remaining at 2 h [29]: > 50%
Activity [30]: Dose-dependent-effect
CLint scaled [31]: 190 mL/min/kg
Activity [32]: Active; Downregulation Effect Is Not As Pronounced As Er-Alpha
